{"source": "paper PMC8321095", "about": "“Species-Specific Effects of Cation Channel TRPM4 Small-Molecule Inhibitors” (Frontiers in Pharmacology, 2021)", "assay_type_in_all_cases": "cell-based", "key": {"[1]": {"system": "TsA-201 cells", "experiment": "Cytotoxicity test (trypan blue cell counting)", "conditions": "Homo sapiens, tsA201, 24 h, read-out: EC50, concentration of the inhibitor required to induce 50% of cell death", "method": "Untransfected TsA-201 cells were seeded in a 96-wells plate at a concentration of 10,000 cells per well with DMEM and incubated at 37°C and 5% CO2 in a humidified atmosphere incubator overnight. […] After incubation, the cells were washed and incubated in 0.01% trypsin-EDTA until the cellular layer was completely detached. Cells were centrifuged down, and the pellet resuspended in 1 ml PBS. Cells were then diluted in 1 part of 0.4% trypan blue and 1-part cell suspension. This mixture was incubated for 3 min at room temperature. Finally, the unstained (viable) and stained (nonviable) cells were counted in the haemocytometer (BRAND® counting chamber BLAUBRAND®, Wertheim, Germany)."}, "[2]": {"target": "T1, human TRPM4 (Homo sapiens, UniProt Q8TD43)", "T1 construct": "expressed in transfected cells", "T1 sequence (Q8TD43 whole entry)": "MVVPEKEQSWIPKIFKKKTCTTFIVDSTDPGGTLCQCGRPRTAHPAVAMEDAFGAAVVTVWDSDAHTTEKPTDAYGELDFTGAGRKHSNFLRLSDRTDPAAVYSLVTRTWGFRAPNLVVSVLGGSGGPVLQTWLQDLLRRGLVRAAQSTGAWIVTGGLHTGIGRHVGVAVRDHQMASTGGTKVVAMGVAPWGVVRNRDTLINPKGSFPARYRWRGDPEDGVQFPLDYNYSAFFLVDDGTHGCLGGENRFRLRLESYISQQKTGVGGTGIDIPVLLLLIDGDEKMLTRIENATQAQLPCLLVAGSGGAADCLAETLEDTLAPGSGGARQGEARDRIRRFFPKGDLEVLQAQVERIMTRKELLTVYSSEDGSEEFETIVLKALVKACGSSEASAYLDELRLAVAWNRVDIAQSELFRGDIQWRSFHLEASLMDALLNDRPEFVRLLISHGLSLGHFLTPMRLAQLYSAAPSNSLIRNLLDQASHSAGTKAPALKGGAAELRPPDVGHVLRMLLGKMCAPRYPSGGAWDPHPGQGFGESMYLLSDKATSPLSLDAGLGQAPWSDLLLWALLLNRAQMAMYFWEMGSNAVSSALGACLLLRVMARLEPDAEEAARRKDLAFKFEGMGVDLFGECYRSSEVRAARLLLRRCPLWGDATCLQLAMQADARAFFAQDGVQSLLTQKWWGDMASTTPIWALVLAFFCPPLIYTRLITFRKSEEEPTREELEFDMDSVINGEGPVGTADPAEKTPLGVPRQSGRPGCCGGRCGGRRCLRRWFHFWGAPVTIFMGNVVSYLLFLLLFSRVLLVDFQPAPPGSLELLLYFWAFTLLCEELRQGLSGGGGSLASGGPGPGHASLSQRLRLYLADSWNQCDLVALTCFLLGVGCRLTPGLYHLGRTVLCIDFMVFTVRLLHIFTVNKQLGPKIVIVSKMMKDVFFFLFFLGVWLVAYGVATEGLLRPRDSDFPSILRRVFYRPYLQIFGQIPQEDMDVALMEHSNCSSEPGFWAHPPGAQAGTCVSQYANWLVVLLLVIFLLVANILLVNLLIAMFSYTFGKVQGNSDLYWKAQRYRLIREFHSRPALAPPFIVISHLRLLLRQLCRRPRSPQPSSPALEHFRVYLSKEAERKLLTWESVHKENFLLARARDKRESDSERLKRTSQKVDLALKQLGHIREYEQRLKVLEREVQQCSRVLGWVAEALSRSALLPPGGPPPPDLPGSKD", "experiment": "Inside-out patch clamp on TsA-201 cells stably expressing human TRPM4", "conditions": "300 μM calcium, +100 mV", "procedure": "(§1) They were kept at 37°C with 5% CO2 in a humidified atmosphere incubator.\nElectrophysiological recordings were performed in the inside-out patch-clamp configuration with patch pipettes (1 and 2 μm tip opening) pulled from 1.5 mm borosilicate glass capillaries (Zeitz-Instruments GmbH, München, Germany) using micropipette puller P 97 (Sutter Instruments, Novato, CA, United States). The tips were polished to have a pipette resistance of 2–4 MΩ in the bath solution. The pipette solution contained (in mM) 150 NaCl, 10 HEPES, and 2 CaCl2 (pH 7.4 with NaOH). The bath solution contained (in mM) 150 NaCl, 10 HEPES, 2 HEDTA (pH 7.4 with NaOH), and no Ca^2+. […] The I-V relationships (IV curves) have been determined using an I-V protocol from −100 mV to +100 mV for 500 ms with a difference of 20 mV between each sweep (cf. Figure 6). […]\nElectrophysiology data were analysed using IGOR PRO 6 (WaveMetrics, Lake Oswego, United States), Normalized current percentage inhibition was calculated as follows ([activated current at 300 μM calcium]—[activated current at 300 μM calcium with compound]) * 100/[activated current at 300 µM calcium]. […] Data are presented as mean ± SEM except for Figures 3 and 7, where the data have been normalised to 100 for the current recorded in the presence of 300 µM calcium only. […]"}, "[3]": {"target": "T2, mouse TRPM4 (Mus musculus, UniProt Q7TN37)", "T2 construct": "expressed in transfected cells", "T2 sequence (Q7TN37 whole entry)": "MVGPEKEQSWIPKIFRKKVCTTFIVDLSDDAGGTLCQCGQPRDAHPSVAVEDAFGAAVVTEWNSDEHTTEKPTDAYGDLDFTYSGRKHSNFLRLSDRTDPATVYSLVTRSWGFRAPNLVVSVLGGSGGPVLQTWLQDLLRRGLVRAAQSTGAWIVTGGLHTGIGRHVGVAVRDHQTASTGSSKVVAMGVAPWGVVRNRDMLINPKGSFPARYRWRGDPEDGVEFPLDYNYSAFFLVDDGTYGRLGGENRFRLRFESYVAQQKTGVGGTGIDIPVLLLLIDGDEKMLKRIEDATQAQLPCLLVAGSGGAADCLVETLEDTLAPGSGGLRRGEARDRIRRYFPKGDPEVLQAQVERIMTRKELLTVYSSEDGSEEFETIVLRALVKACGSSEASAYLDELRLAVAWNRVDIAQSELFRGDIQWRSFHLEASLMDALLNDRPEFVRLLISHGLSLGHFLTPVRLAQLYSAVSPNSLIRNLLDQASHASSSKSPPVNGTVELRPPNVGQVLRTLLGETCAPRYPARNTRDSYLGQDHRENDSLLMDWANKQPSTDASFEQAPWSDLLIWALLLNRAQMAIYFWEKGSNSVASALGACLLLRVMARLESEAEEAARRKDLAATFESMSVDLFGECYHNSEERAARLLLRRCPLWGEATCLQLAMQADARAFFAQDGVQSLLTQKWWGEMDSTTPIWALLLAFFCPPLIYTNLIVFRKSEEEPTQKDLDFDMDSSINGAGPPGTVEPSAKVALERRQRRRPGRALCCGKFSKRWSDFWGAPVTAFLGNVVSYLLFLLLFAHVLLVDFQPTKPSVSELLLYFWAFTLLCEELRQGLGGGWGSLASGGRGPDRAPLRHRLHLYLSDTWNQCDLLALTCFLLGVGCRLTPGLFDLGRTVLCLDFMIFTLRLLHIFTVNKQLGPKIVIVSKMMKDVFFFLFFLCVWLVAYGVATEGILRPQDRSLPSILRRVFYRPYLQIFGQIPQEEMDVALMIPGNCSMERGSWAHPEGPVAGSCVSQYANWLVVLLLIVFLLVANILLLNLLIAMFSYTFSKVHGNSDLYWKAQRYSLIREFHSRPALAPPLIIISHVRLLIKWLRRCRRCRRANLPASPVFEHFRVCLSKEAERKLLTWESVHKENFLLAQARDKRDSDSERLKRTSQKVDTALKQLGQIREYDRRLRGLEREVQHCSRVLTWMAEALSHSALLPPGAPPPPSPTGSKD", "experiment": "Inside-out patch clamp on TsA-201 cells stably expressing mouse TRPM4", "conditions": "for effect of CBA- and NBA-derived compounds on mouse TRPM4 current: 10 μM, applied intracellularly, n ≥ 6", "procedure": "as §1\nElectrophysiological recordings were performed in the inside-out patch-clamp configuration with patch pipettes (1 and 2 μm tip opening) pulled from 1.5 mm borosilicate glass capillaries (Zeitz-Instruments GmbH, München, Germany) using micropipette puller P 97 (Sutter Instruments, Novato, CA, United States). The tips were polished to have a pipette resistance of 2–4 MΩ in the bath solution. The pipette solution contained (in mM) 150 NaCl, 10 HEPES, and 2 CaCl2 (pH 7.4 with NaOH). The bath solution contained (in mM) 150 NaCl, 10 HEPES, 2 HEDTA (pH 7.4 with NaOH), and no Ca^2+. […] Bath solution with 0 and 300 μM Ca^2+ concentrations were applied to cells by a modified rapid solution exchanger (Perfusion Fast-Step SF-77B; Warner Instruments Corp. CT, United States). […] Data were low-pass filtered at 5 kHz and sampled at 10 kHz. Experiments were performed at room temperature (20–25°C). The holding potential was 0 mV. For measuring steady-state currents, the stimulation protocol consisted of two sweeps with a total duration of 1,000 ms, the first sweep at −100 mV for 500 ms and the second at +100 mV for 500 ms (Figure 2). […] The I-V relationships (IV curves) have been determined using an I-V protocol from −100 mV to +100 mV for 500 ms with a difference of 20 mV between each sweep (cf. Figure 6). The IV curves have been normalised to the maximum current. No fit was applied.\nAfter obtaining inside-out membrane patches, the presence of TRPM4 in the patch membrane was confirmed by switching the perfusion solution without calcium at the intracellular side of the membrane to a solution containing 300 μM calcium, which activates TRPM4 and triggers the current. Once the TRPM4 currents were activated and stabilised for intracellular compound application, the perfusion solution containing 300 μM calcium and either the compound or free adenosine triphosphate (ATP) was applied. For extracellular application, the compounds were added to the […] (pipette) solution.\nElectrophysiology data were analysed using IGOR PRO 6 (WaveMetrics, Lake Oswego, United States), Normalized current percentage inhibition was calculated as follows ([activated current at 300 μM calcium]—[activated current at 300 μM calcium with compound]) * 100/[activated current at 300 µM calcium]. Concentration-response curves were fitted using the Hill equation fit parameter of IGOR (NC = NCmax [Cmpd]nH/([Cmpd]nH + EC50 nH)) where NC is normalized current [Cmpd] is compound concentration and nH is the Hill coefficient. Data are presented as mean ± SEM except for Figures 3 and 7, where the data have been normalised to 100 for the current recorded in the presence of 300 µM calcium only. Statistically significant differences conditions were determined using a non-parametric test with a Mann-Whitney post-test."}, "[4]": {"conditions": "bath solution, 300 μM calcium, +100 mV"}}}
{"molecule": "Oc1cc2ccccc2c2ccccc12", "note": "[9-phenanthrol]", "values": [{"measurement": "EC50", "setting": "[1]", "result": "~20", "unit": "µM"}, {"measurement": "effect on human TRPM4 sodium current", "setting": "[2]; 30 μM, extracellular or intracellular application", "result": "inhibited human TRPM4 sodium current with a similar efficacy independently of the application side"}, {"measurement": "concentration dependence of potentiation of mouse TRPM4 current", "setting": "[3]; 0.1 μM versus 100 μM, intracellular application, n = 6", "result": "more pronounced with low concentrations"}, {"measurement": "effect on mouse TRPM4 current, intracellular application", "setting": "[3]; 30 μM in bath solution, 300 μM calcium, +100 mV", "result": "increased the current"}, {"measurement": "effect on mouse TRPM4 current, extracellular application", "setting": "[3]; 30 μM in pipette solution, 300 μM calcium, +100 mV", "result": "decreased the mouse TRPM4 current"}, {"measurement": "calcium dependence of the increase of mouse TRPM4 current", "setting": "[3]; 30 μM, intracellular application, with or without 300 μM calcium", "result": "observed only in the presence of 300 μM calcium"}]}
{"molecule": "Nc1ncnc2c1ncn2[C@@H]1O[C@H](COP(=O)(O)OP(=O)(O)OP(=O)(O)O)[C@@H](O)[C@H]1O", "note": "[ATP, adenosine triphosphate]", "values": [{"measurement": "IC50", "setting": "[2]; inside-out patch, bath solution, Hill fit, n = 6, read-out: IC50 on human TRPM4 current, intracellular application", "result": 0.8, "unit": "µM"}, {"measurement": "IC50", "setting": "[3]; inside-out patch, bath solution, 300 μM calcium, +100 mV, Hill fit, n = 6, read-out: IC50 on mouse TRPM4 current, intracellular application", "result": 1.4, "unit": "µM"}]}
{"molecule": "Cc1cc(Cl)ccc1OC(C)C(=O)Nc1cc(Cl)ccc1C(=O)O", "note": "(centres unmarked) [CBA-d1]", "values": [{"measurement": "effect of CBA- and NBA-derived compounds on mouse TRPM4 current", "setting": "[3]; [4]", "result": "did not decrease the mouse TRPM4 currents"}]}
{"molecule": "O=C(COc1ccc(Cl)c2ccccc12)Nc1cc(Cl)ccc1C(=O)O", "note": "[NBA-d1, 4-chloro-2-(2-((4-chloronaphthalen-1-yl)oxy)acetamido) benzoic acid]", "values": [{"measurement": "effect of CBA- and NBA-derived compounds on mouse TRPM4 current", "setting": "[3]; [4]", "result": "could inhibit mouse TRPM4 currents"}]}
{"molecule": "O=C(COc1cccc2c1CCCC2)Nc1cc(Cl)ccc1C(=O)O", "note": "[NBA-d2, 4-chloro-2-(2-((5,6,7,8-tetrahydronaphthalen-1-yl)oxy)acetamido) benzoic acid]", "values": [{"measurement": "effect of CBA- and NBA-derived compounds on mouse TRPM4 current", "setting": "[3]; [4]", "result": "could inhibit mouse TRPM4 currents"}]}
